According to US8410068B2, “Compounds for the treatment or alleviation of edema, and methods for their use” (Index Pharmaceuticals AB, priority 2007, dated 2013):

How the values were obtained:
[1] = system: tetradecanoylphorbol 13-acetate (TPA) induced ear edema; assay: TPA-induced ear edema model; type: in vivo, mice; details: for AUC reduction (%) TPA: 10 μg one single s.c. injection 20 minutes before TPA, compared to PBS control; for Peak reduction (%) TPA: 10 μg subcutaneously 20 minutes before induction of edema
Procedure: A stock solution of TPA was prepared by dissolving TPA in DMSO, 1 mg/mL, and was stored frozen at −80° C. For study B-E, a working solution was prepared with 200 μL of the TPA stock solution added to 800 μL acetone. The working solution was used the same day as it was prepared.
Each cage was identified by a cage card marked with study number, group number, ethical approval number, sex and animal ear numbers. The animals were individually marked on the tail with transverse lines corresponding to the animals' number, using a permanent-ink felt pen. An illustration of the protocols used for the different treatments is outlined in Table 4. The compounds were tested according to the same protocols with necessary modifications.
Intraperitoneal (i.p.) injections were performed by giving 100 μL in the lower right quadrant of the abdomen. Subcutaneous injections were done with 100 μL in the neck region. Intranasal administration was performed by letting the mouse inhale droplets into the nostrils, total volume 40 μL. All administrations were done on non-anesthetized mice.
(§1) Both outer ears of a non-anesthetized mouse were washed with mild soap (Palmolive, Sweden) using a soft tooth brush, the ears were dried with tissue and cleaned with tissue soaked with acetone. After allowing the acetone to evaporate, TPA or AA was applied on both sides, 10 μL, on each side of the ear with care to cover the whole ear. The mouse was held for 20 seconds to allow the solvent to evaporate.
Intraperitoneal injections were given in the lower right quadrant of the abdomen with the animal held in a supine position. Subcutaneous (s.c.) injections were given in the neck of the animals. Intranasal administrations were given to mice held in a slightly reclining position. With an adjustable micro-pipette 40 μL of the test substance was given in droplets on the nostrils and the mouse was allowed to aspirate at free will.
(§2) The ears of non-anesthetized mice were measured at different time points for up to 96 hours after the TPA was administered, or up to 24 hours for the AA model. The first measurements were done before the edema was induced. The thickness was recorded with a spring loaded dial micrometer (Limit, Thickness Gauge, accuracy 0.01 mm, contact area Ø6 mm, Luna AB, Allingsås, Sweden) in triplicates at all time points per ear.
(§3) The average thickness for both ears on a mouse was calculated and compared to the average thickness of the ears at the starting time point. The value obtained at the start of the experiment was set as 100%. The peak values and area under the curve (AUC) values for the treatment groups were calculated and compared to the inflamed control group, treated with PBS (set as 100%), and expressed as a percentage change (Δ% AUC).
(§4) Area under the curve (AUC) with base line set as 100 was calculated using GraphPad Prism version 4.03 for Windows (GraphPad Software, San Diego Calif. USA, www.graphpad.com).
AUC reduction and P-values were calculated against the positive control (TPA or AA+PBS).

[2] = system: OVA induced airway inflammation; assay: Ovalbumin (OVA) induced allergic airway inflammation, BAL fluid cell counts; type: in vivo, Balb/c mice; details: prophylactic protocol, 50 μg/animal intranasal on day 16 and 21; for cell migration into BAL fluid: second experiment
Procedure: Mice were sensitized intraperitoneally with 200 μL OVA/aluminium hydroxide gel (1:3) on day 0 and 12 (see FIG. 6). OVA (chicken egg albumin grade V, Sigma, St. Louis, Mo.) was dissolved in saline and mixed with aluminium hydroxide gel to a concentration of 50 μg/mL by rotation at 4° C. for 3 h. On days 23, 26, 30 and 33 (see FIG. 6), mice were challenged in the lungs by inhalation of aerosolized OVA for 30 minutes using a Batelle exposure chamber. Aerosols were generated by a compressed-air nebulizer (Collison 6-jet) at airflow 7.4 L/min using a nebulizer concentration of 10 mg/mL OVA dissolved in PBS (Sigma, St Louis, Mo., USA). The control group with non-sensitized animals received no other treatment than aerosolized OVA at days 23, 26, 30 and 33.
In this OVA model (FIG. 6), a total of 4 oligonucleotides were tested, IDX9025, IDX9038, IDX9053 (Table 1, SEQ ID NO 2-4) and IDX0150 (Table 3, SEQ ID NO 11). The oligonucleotides were synthesized by biomers.net GmbH, Ulm, Germany and stored frozen at −20° C. The oligonucleotides were diluted with PBS to the working concentration (1,247 μg/μL) and kept at −20° C. until the first day of instillation, thereafter they were placed at 4° C.
In a first experiment, both prophylactic and therapeutic protocols were tested (see FIG. 6). The drug treatment consisted of intranasal instillations of IDX0150 (1,247 μg/μL, provided by InDex Pharmaceuticals AB, Stockholm, Sweden) on days 16 and 21 (prophylactic protocol), on days 30 and 33 (therapeutic protocol A) or on days 30 and 34 (therapeutic protocol B). The instillations in the therapeutic protocols (A & B) on days 30 and 33 were given 4 h after aerosol challenge. The second instillation in protocol B on day 34 was given 24 h after the last aerosol challenge. The drug was administered in 40 μL PBS giving a dose of ˜50 μg/mice (49.88 μg/mice). The two sensitized sham-treatment groups were instilled with PBS, the same total volume as for the treatment groups, according to either the prophylactic protocol (days 16 and 21) or to the therapeutic protocol A (days 30 and 33).
In a second experiment, since administration of IDX0150 in the first experiment using prophylactic protocol (FIG. 6) gave a significant reduction of airway inflammation (FIG. 7), three other substances were tested with the same protocol. The drug treatment consisted of intranasal instillations of IDX9025, IDX9038 and IDX9053 (Table 1) (1,247 μg/μL, provided by InDex Pharmaceuticals AB) on days 16 and 21 (see FIG. 6, prophylactic protocol). All substances were administered in 40 μL PBS giving a dose of ˜50 μg/mice (49.88 μg/mice). The two sensitized sham-treatment groups were instilled with PBS, the same total volume as for the treatment groups, according to the prophylactic protocol (days 16 and 21).
Mice were killed by cervical dislocation 42 h after the last OVA aerosol challenge. The trachea was cannulated with polyethylene tubing (Becton Dickinson, Sparks, Md., USA) and bronchoalveolar lavage (BAL) was performed using 4×1 mL aliquots of ice-cold Hank's balanced salt solution (HBSS) (Sigma, St Louis, Mo., USA). The BAL fluid was centrifuged (400 g, 10 min, 4° C.) and the BAL fluid cells were resuspended in 0.4 mL PBS. The total number of leukocytes counted using tryphan blue exclusion in a Barker chamber. Duplicate Cytospin (Cytospin 3, Shandon, Runcorn, UK) preparations of BAL fluid cells were stained with May Grünewald Giemsa for differential counts, using standard morphological criteria.
Statistical comparisons were performed using One-way analysis of variance (ANOVA) using Dunnett's post hoc correction to compare with sensitized PBS treated control mice (GraphPad Prism 3). Data are shown as mean±standard deviation. P<0.05 was considered significant.

[3] = system: arachidonic acid (AA) induced ear edema; assay: Arachidonic acid (AA) induced ear edema model; type: in vivo, mice
Procedure: A stock solution of AA was prepared by diluting AA in acetone, 4 mg/10 μL, and was stored frozen at −80° C. A final working solution, 1 mg/10 μL, in acetone was prepared. The working solution was used within one hour after preparation.
as §1, §2, §3, §4
In addition to the experiments done with the control compounds and IDX0001, all other test compounds were investigated in a similar fashion in the TPA and/or AA ear edema models, where the test compounds were given subcutaneously (10 μg) 20 minutes before induction of edema. The results were expressed as reduction of peak value and reduction of area under curve (AUC) in Table 5.

Substance | AUC reduction (%) TPA [1] | Peak reduction (%) TPA [1] | cell migration into BAL fluid [2] | AUC reduction (%) AA ([3]; 10 μg one single s.c. injection 20 minutes before AA, compared to PBS control) | Peak reduction (%) AA ([3]; 10 μg subcutaneously 20 minutes before induction of edema) | migration of eosinophils into the BAL fluid ([2]; P<0.001) | migration of leukocytes into the BAL fluid ([2]; P<0.05)
G*G*G*TCGTCTG*C*G*G (GGGTCGTCTGCGG; DNA, linkages s3 o6 s3 (s phosphorothioate, o phosphodiester), methylation of C not given here) [IDX9053] | −39.0% | −30.5% | no significant reduction of cell migration |  |  |  | 
T*G*C*CATTCGTCGATTTCGTC*G*A*T (TGCCATTCGTCGATTTCGTCGAT; DNA, linkages s3 o16 s3 (s phosphorothioate, o phosphodiester), methylation of C not given here) [IDX9025, oligonucleotide; * = phosphorothioate modification] | −57.8% | −23.5% | no significant reduction of cell migration | −81.9% | −14.9% |  | 
T*C*G*TCGTTCGGCCGATCG*T*C*C (TCGTCGTTCGGCCGATCGTCC; DNA, linkages s3 o14 s3 (s phosphorothioate, o phosphodiester), methylation of C not given here) [IDX9038, oligonucleotide; * = phosphorothioate modification] | −47.4% | −37.9% |  |  |  | significantly reduce | significantly reduce
